Measured values as given in patent publication US5527804A, “4-carbamoyloxy-piperidine-1-carboxylic acid esters: inhibitors or cholesterol absorption” (American Home Products Corporation, priority 1994, dated 1996).
Read-outs that look alike come from different tables or passages of the source.

Legend:
[1] = target: T1, cholesterol esterase (EC 3.1.1.13), CEH (Bos taurus, UniProt P30122); test: In vitro inhibition of cholesteryl ester formation by cholesterol esterase (CEH); assay type: biochemical
T1 construct: purchased Sigma Company, St. Louis, Mo; C-1892; host or cells: bovine pancreas
T1 sequence (P30122 19-597): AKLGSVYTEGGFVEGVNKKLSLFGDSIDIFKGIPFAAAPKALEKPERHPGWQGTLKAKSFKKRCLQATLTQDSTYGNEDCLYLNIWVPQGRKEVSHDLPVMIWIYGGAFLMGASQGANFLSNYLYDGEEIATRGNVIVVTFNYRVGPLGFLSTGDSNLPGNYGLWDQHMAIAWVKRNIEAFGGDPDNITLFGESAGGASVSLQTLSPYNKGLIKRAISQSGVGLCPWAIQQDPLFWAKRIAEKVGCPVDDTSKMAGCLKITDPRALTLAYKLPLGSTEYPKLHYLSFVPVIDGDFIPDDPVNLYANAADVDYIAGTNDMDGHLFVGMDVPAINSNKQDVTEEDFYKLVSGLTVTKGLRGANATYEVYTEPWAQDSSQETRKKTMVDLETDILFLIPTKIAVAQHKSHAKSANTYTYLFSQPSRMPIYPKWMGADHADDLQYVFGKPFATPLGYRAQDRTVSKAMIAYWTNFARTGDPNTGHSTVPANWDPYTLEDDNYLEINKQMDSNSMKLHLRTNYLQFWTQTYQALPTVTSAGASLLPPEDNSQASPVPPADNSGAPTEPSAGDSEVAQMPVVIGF
Protocol: In Vitro Assay: The ability of the compounds of this invention to inhibit the formation of cholesteryl esters and thereby interfere with and prevent assimilation of cholesterol into the lymphatic system and ultimately the blood stream was established by incubating the compounds at 37° C. with a mixture of cholesterol and oleic acid in the presence of buffered cholesterol esterase [(EC 3.1.1.13) Sigma Company, St. Louis, Mo., U.S.A., No. C-1892, from bovine pancreas] and measuring the amount of ester formed, according to the procedure of Field, J. of Lipid Research, 25, 389 (1984).

[2] = tested on: absorption of 14C-cholesterol; test: In vivo cholesterol absorption, serum radioactivity after oral [4-14C] cholesterol; parameters: species or system normal rats; settings: normal rat, 6 hr, vs control
Protocol: In Vivo Assay: The in vivo cholesterol absorption studies were conducted in normal rats by oral administration of the compound being tested in propylene glycol and olive oil followed by oral administration of [4-^14 C] cholesterol in propylene glycol and olive oil, otherwise following the procedure of Cayen et al., J. Lipid Res. 20, 162 (1979). The serum radioactivity was measured at six hours after dosing. The results of this study are reported in Table I as percent decrease compared to control.

[3] = IC25 instead of IC50; 37° C.; cholesterol + oleic acid; bovine pancreas enzyme
[4] = 37° C.; cholesterol + oleic acid; bovine pancreas enzyme; read-out: In Vitro Results IC50 CEH

Structure (SMILES)	IC50 ([1]; read-out: In Vitro Results IC50 CEH; 37° C.; cholesterol + oleic acid; bovine pancreas enzyme) [nM]	Effect on Absorption of 14C-Chol, % Decrease ([2]; 3 mg/kg) [%]	IC25 [1, 3] [nM]	Effect on Absorption of 14C-Chol, % Decrease ([2]; 10 mg/kg) [%]	IC50 [1, 4] [nM]
CCCCCCNC(=O)OC1CCN(C(=O)OCCCCCCNC(=O)Oc2ccc(Oc3ccccc3)cc2)CC1 [Example 6, 4-(Hexylcarbamoyloxy)-piperidine-1-carboxylic acid 6-[(4-phenoxy-phenyl)-oxycarbonylamino]-hexyl ester]	1100	49	–	–	–
O=C(NCCCCCCOC(=O)N1CCC(OC(=O)N2CCC3(CCCC3)CC2)CC1)Oc1ccc(Oc2ccccc2)cc1 [Example 7, 8-Aza-spiro[4.5]decane-8-carboxylic acid 1-{6-[(4-phenoxy-phenyl)-oxycarbonylamino]-hexyloxycarbonyl}-piperidin-4-yl ester]	–	–	200	50	–
CCCCCCCCCCNC(=O)OC1CCN(C(=O)OCCCCCCNC(=O)Oc2ccc(Oc3ccccc3)cc2)CC1 [Example 8, 4-(Decylcarbamoyloxy)-piperidine-1-carboxylic acid 6-[(4-phenoxy-phenyl)-oxycarbonylamino]-hexyl ester]	–	–	–	43	3000
O=C(NCCCCCCOC(=O)N1CCC(OC(=O)NC2CCCCC2)CC1)Oc1ccc(Oc2ccccc2)cc1 [Example 9, 4-(Cyclohexylcarbamoyloxy)-piperidine-1-carboxylic acid 6-[(4-phenoxy-phenyl)-oxycarbonylamino]-hexyl ester]	–	–	300	46	–
O=C(NCCCCCCOC(=O)N1CCC(OC(=O)NCCCCc2ccccc2)CC1)Oc1ccc(Oc2ccccc2)cc1 [Example 10, 4-(4-Phenyl-butyl-carbamoyloxy)-piperidine-1-carboxylic acid 6-[(4-phenoxy-phenyl)-oxycarbonylamino]-hexyl ester]	–	–	300	61	–
O=C(NCCCCCCOC(=O)N1CCC(OC(=O)N2CCCCC2)CC1)Oc1ccc(Oc2ccccc2)cc1 [Example 11, 4-(Piperidine-1-carbonyloxy)-piperidine-1-carboxylic acid 6-[(4-phenoxy-phenyl)oxycarbonylamino]-hexyl ester]	–	–	–	81	5900
